Patent publication US9382204B2, “Inhibitors targeting the DNA-binding domain of human STAT3 for treatment of metastatic cancers” (Indiana University Research and Technology Corporation, priority 2013, dated 2016)

System: STAT3
Test: STAT3-dependent luciferase reporter assay in MDA-MB-231-STAT3 stable cells
Format: cell-based, human
Conditions: 20 μM; for Rel. luciferase activity (%) 1: experiment 1, relative to DMSO; for Rel. luciferase activity (%) 2: experiment 2, relative to DMSO; for Rel. luciferase activity (%) 3: experiment 3, relative to DMSO; for Rel. luciferase activity (%) Mean: mean of experiments, relative to DMSO; for inhibition of luciferase expression compared to DMSO vehicle control: significant = p value less than 0.05
Protocol: FIG. 12. Identification of active inS3-54 analogues. (A) Effects of inS3-54 analogues on STAT3-dependent luciferase expression. MDA-MB-231 cells with stable STAT3-dependent luciferase expression were treated with DMSO control, 20 μM inSTAT3-54 or its analogues (A1-A79), followed by measurement of luciferase activity. (*p<0.05; **p<0.01; ***p<0.001).
MDA-MB-231-STAT3 stable cell line with high level of STAT3-dependent luciferase expression was exposed to candidate compounds at 20 μM in DMSO for 48 hours based on previous studies, and luciferase activity was measured using a luciferase assay kit (Promega, USA), following manufacturer's instructions. The final DMSO concentration in this and following assays was 0.1% (vol/vol).

SMILES | Rel. luciferase activity (%) 1 | Rel. luciferase activity (%) 2 | Rel. luciferase activity (%) 3 | Rel. luciferase activity (%) Mean | inhibition of luciferase expression compared to DMSO vehicle control
O=C1C(=Cc2ccc(Cl)cc2)C=C(c2ccccc2)N1c1ccc2ccccc2c1 [Compound A59] | 124.7% | 148.5% | 80.5% | 117.9% | 
CCN(CC)c1ccc(N2C(=O)C(=Cc3ccc([N+](=O)[O-])cc3)C=C2c2ccccc2)cc1 [Compound A45] | 60.9% | 89.3% | 71.6% | 73.9% | significantly inhibited
O=C1C(=Cc2ccc([N+](=O)[O-])cc2)C=C(c2ccccc2)N1c1cccc(Cl)c1 [Compound A38] | 66.5% | 119.9% | 88.8% | 91.8% | 
O=C1C(=Cc2ccc(Cl)cc2)C=C(c2ccccc2)N1c1ccc(Nc2ccccc2)cc1 [Compound A28] | 67.2% | 106.0% | 62.1% | 78.4% | 
O=C(O)c1ccc(N2C(=O)C(=Cc3ccc(-c4ccc(Cl)c(Cl)c4)o3)C=C2c2ccccc2)cc1 [Compound A61] | 57.8% | 107.0% | 40.8% | 68.5% | 
COC(=O)c1cc(N2C(=O)C(=Cc3ccc(Cl)cc3)C=C2c2ccccc2)ccc1Cl [Compound A66] | 90.3% | 110.5% | 73.6% | 91.5% | 
O=C1C(=Cc2ccc(-c3ccc([N+](=O)[O-])cc3)o2)C=C(c2ccccc2)N1c1ccc(F)cc1 [Compound A11] | 73.5% | 101.5% | 91.7% | 88.9% | 
Cc1ccc(N2C(=O)C(=Cc3ccc(-c4cc(Cl)ccc4Cl)o3)C=C2c2ccccc2)cc1[N+](=O)[O-] [Compound A3] | 116.7% | 104.0% | 101.3% | 107.3% | 
COc1ccc(C=C2C=C(c3ccccc3)N(c3ccc(F)cc3)C2=O)cc1 [Compound A53] | 45.4% | 113.0% | 47.4% | 68.6% | 
Cc1ccc(N2C(=O)C(=Cc3ccc(-c4ccc([N+](=O)[O-])cc4)o3)C=C2c2ccccc2)cc1C [Compound A5] | 113.5% | 109.3% | 92.2% | 105.0% | 
O=C1C(=Cc2ccc([N+](=O)[O-])cc2)C=C(c2ccccc2)N1c1ccccc1O [Compound A42] | 100.8% | 145.3% | 100.8% | 115.6% | 
O=C1C(=Cc2ccc(Cl)cc2)C=C(c2ccccc2)N1c1ccc(Cl)cc1 [Compound A16] | 55.8% | 91.2% | 57.1% | 68.0% | 
O=C1C(=Cc2ccc([N+](=O)[O-])cc2)C=C(c2ccccc2)N1c1ccc(-c2ccccc2)cc1 [Compound A35] | 51.3% | 109.5% | 112.6% | 91.1% | 
Cc1ccc(N2C(=O)C(=Cc3ccc(Cl)cc3)C=C2c2ccccc2)cc1[N+](=O)[O-] [Compound A25] | 74.6% | 124.2% | 87.8% | 95.6% | 
COc1ccc(C=C2C=C(c3ccccc3)N(c3ccc(NC(C)=O)cc3)C2=O)cc1 [Compound A60] | 70.7% | 107.0% | 58.9% | 78.9% | 
O=C1C(=Cc2ccc(Cl)cc2)C=C(c2ccccc2)N1c1ccccc1 [Compound A15] | 98.4% | 99.9% | 60.1% | 86.1% | 
COc1ccc(C=C2C=C(c3ccccc3)N(c3ccc(O)cc3)C2=O)cc1 [Compound A72] | 34.2% | 58.1% | 34.1% | 42.1% | significantly inhibited
COc1ccc(N2C(=O)C(=Cc3ccc([N+](=O)[O-])cc3)C=C2c2ccccc2)cc1 [Compound A33] | 33.8% | 92.3% | 99.1% | 75.1% | 
Cc1ccc(N2C(=O)C(=Cc3ccc(-c4ccc([N+](=O)[O-])cc4)o3)C=C2c2ccccc2)cc1 [Compound A4] | 117.8% | 108.4% | 103.4% | 109.9% | 
COc1ccccc1N1C(=O)C(=Cc2ccc(Cl)cc2)C=C1c1ccccc1 [Compound A75] | 28.7% | 71.4% | 45.4% | 48.5% | significantly inhibited
Cc1ccccc1N1C(=O)C(=Cc2ccc(-c3ccc([N+](=O)[O-])cc3)o2)C=C1c1ccccc1 [Compound A9] | 78.4% | 95.8% | 96.2% | 90.2% | 
O=C1C(=Cc2ccc(Cl)cc2)C=C(c2ccccc2)N1c1ccc(F)cc1 [Compound A22] | 97.9% | 114.0% | 61.1% | 91.0% | 
O=C1C(=Cc2ccc(-c3ccc([N+](=O)[O-])cc3)o2)C=C(c2ccccc2)N1c1cccc(Cl)c1 [Compound A10] | 87.4% | 110.4% | 103.7% | 100.5% | 
COC(=O)c1cccc(N2C(=O)C(=Cc3ccc(Cl)cc3)C=C2c2ccccc2)c1 [Compound A19] | 45.7% | 101.8% | 60.1% | 69.2% | 
COc1ccc(C=C2C=C(c3ccccc3)N(c3ccc(Cl)c(Cl)c3)C2=O)cc1 [Compound A52] | 39.5% | 141.9% | 77.7% | 86.4% | 
Cc1ccc(N2C(=O)C(=Cc3ccc([N+](=O)[O-])cc3)C=C2c2ccccc2)cc1C [Compound A29] | 100.7% | 170.4% | 113.3% | 128.1% | 
